Test [1] has as its target c-Src (Homo sapiens (Human), UniProt P12931). The test can be described thus: TR-FRET c-Src kinase assay. The class given is biochemical. The following applies: ATP 50 μM; for inhibition at 0.1 µM: read-out: c-SRC % inhibition at 100 nM, 100 nM; for inhibition at 1 µM: read-out: c-SRC % inhibition at 1 μM. The method, then: (§1) Compounds were screened in the TR-FRET assay for JAK2 and c-Src kinase inhibition. Ultra light poly GT (Perkin Elmer) was used as the substrate for JAK2 and c-Src with the ATP concentration of 10 μM and 50 μM, respectively. […] The dose-response curve fitting was done using GraphPad Prism software.
Background: Time-resolved FRET reads energy transfer from a long-lived donor to a nearby acceptor.

For test [2], the system named is Mda-Mb-231 cells. Put plainly: Cell viability assay (XTT assay), Mda-Mb-231. Type of test: cell-based. The settings on record: Homo sapiens, 72 hrs. The method, then: Mda-Mb-231 or A549 cells were seeded onto a 96-well micro plate. Next day compounds were added to cells and incubated for 72 hrs. Compound treatment was done in triplicates. After 72 hrs cell culture media was aspirated from the wells and XTT working solution was added and plates were incubated for 2-5 hrs. The absorbance of the samples was measured with a spectrophotometer at a wavelength of 465 nm. EC50 values were calculated using Graphpad Prism. Tumor cell lines used in the examples of the present invention were procured from ATCC. Description of the cell lines is included in the following table: […]
On the technique in general: Tetrazolium dyes change colour on reduction, which living cells bring about.

Test [3] addresses JAK2 (Homo sapiens (Human), UniProt O60674). The test can be described thus: TR-FRET JAK2 kinase assay. The class given is biochemical. The following applies: ATP 10 μM; for inhibition at 0.1 µM: read-out: JAK2 % inhibition at 100 nM, 100 nM; for inhibition at 1 µM: read-out: JAK2 % inhibition at 1 μM. The method, then:
as §1

The subject of test [4] is pStat3. Put plainly: In-Cell-Western blot assay for pStat3 (ICW) in A431 cells. The class given is cell-based. The settings on record: Homo sapiens, A-431, 2 hrs, read-out: pSTAT3 inhibition. The method, then:
A431 cells were seeded onto a 96-well micro plate. After overnight serum starvation cells were incubated with compounds for 2 hrs. Cells were fixed with 4% paraformaldehyde in PBS and then permeabilized with 0.1% Triton X-100 in PBS (PBST). Cells were blocked with 5% BSA in PBST for 2 hrs, followed by overnight incubation with phospho Stat3 antibody. Cells were washed and incubated with europium-labeled anti-rabbit secondary antibody for 2 hrs. After washing enhancement solution was added to the wells. The micro-plate was read on the Victor instrument at the Europium setting. The Hoechst readings were used to normalize for cell number. IC50 values were calculated with the normalized europium values using Graphpad Prism.

The source of these data is patent publication US8962637B2, “Bicyclic compounds and their uses as dual c-SRC/JAK inhibitors” (Debiopharm S.A., priority 2010, dated 2015).

The EC50 is the midpoint of the concentration-response curve. Higher therefore signals a need for much substance. For orientation: inhibition means the relative decrease from the control value, in per cent.

Chain of JAK2 (O60674 whole entry): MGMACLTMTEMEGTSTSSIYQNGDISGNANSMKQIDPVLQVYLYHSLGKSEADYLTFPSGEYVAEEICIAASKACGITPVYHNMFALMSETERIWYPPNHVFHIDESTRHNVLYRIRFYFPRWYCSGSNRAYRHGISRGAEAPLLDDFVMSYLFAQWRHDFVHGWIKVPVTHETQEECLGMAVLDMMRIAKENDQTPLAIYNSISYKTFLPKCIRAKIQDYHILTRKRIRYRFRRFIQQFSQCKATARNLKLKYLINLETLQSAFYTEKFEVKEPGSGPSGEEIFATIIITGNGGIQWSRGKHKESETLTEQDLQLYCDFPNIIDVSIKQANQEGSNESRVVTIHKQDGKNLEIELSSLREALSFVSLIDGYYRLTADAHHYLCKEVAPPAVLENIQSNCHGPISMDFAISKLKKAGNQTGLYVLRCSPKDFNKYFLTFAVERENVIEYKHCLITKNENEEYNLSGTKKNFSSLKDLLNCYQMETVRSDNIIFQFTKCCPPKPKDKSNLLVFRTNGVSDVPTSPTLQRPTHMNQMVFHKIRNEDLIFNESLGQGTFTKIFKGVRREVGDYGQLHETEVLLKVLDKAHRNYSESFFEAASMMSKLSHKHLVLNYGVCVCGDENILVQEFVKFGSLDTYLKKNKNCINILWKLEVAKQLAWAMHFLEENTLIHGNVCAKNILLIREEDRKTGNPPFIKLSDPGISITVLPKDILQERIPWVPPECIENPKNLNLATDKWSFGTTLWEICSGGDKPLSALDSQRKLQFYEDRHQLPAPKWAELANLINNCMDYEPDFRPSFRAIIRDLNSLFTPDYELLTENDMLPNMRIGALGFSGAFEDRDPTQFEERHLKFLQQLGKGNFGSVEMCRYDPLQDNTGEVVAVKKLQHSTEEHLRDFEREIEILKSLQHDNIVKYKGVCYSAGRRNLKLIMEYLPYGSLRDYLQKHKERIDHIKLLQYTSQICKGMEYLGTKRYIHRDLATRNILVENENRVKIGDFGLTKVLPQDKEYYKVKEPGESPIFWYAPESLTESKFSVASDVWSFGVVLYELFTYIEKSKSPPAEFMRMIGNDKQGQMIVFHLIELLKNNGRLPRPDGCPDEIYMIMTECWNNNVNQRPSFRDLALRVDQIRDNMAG
Chain of c-Src (P12931 whole entry, looked up): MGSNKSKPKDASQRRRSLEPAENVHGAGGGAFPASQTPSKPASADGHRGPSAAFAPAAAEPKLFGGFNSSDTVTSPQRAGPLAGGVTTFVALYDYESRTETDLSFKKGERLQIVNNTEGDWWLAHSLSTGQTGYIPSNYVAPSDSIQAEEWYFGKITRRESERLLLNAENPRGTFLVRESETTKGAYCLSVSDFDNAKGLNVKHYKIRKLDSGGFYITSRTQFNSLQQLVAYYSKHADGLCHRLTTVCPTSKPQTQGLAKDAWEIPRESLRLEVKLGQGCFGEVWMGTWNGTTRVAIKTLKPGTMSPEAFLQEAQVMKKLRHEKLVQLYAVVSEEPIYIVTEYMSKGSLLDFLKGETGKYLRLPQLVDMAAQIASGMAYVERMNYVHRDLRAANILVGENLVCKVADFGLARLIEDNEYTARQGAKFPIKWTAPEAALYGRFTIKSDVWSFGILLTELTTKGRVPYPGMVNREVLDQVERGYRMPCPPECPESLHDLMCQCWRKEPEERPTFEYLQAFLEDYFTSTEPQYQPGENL

Consider `Cc1ccc(NC(=O)c2cccc(Br)c2)cc1N1CCc2nc(Nc3ccc(N4CCN(C)CC4)cc3)ncc2C1=O` [Compound 58, 3-Bromo-N-(4-methyl-3-{2-[4-(4-methyl-piperazin-1-yl)-phenylamino]-5-oxo-7,8-dihydro-5H-pyrido[4,3-d]pyrimidin-6-yl}-phenyl)-benzamide], for which the IC50 came to 0.019 µM in test [1] and 0.044 µM in test [3]. The EC50 in test [2] is 3.82 µM.
Consider `Cc1ccc(NC(=O)CC2CCCC2)cc1N1CCc2nc(Nc3ccc(OCCN4CCCC4)cc3)ncc2C1` [Compound 108, 2-Cyclopentyl-N-(4-methyl-3-{2-[4-(2-pyrrolidin-1-yl-ethoxy)-phenylamino]-7,8-dihydro-5H-pyrido[4,3-d]pyrimidin-6-yl}-phenyl)-acetamide], for which, in test [1], the IC50 was 0.001 µM, the inhibition at 0.1 µM amounted to 98% and the inhibition at 1 µM came to 100%. The compound further showed an EC50 in test [2] of 2.6 µM. Moreover, in test [3], the IC50 was found to be 0.012 µM and the inhibition at 0.1 µM amounted to 89%. In addition, in test [3] (1 μM), the inhibition at 1 µM came out at 98%.
For the compound `Cc1ccc(NC(=O)c2cccc(C(F)(F)F)c2)cc1N1CCc2nc(Nc3ccc(C(N)=O)nc3)ncc2C1` [Compound 119, 5-{6-[2-Methyl-5-(3-trifluoromethyl-benzoylamino)-phenyl]-5,6,7,8-tetrahydro-pyrido[4,3-d]pyrimidin-2-ylamino)-pyridine-2-carboxylic acid amide], in test [1], the inhibition at 0.1 µM came out at 95% and the inhibition at 1 µM is 98%. The EC50 in test [2] worked out at 0.38 µM. Besides, in test [3], the IC50 is 0.008 µM. Further, the IC50 in test [4] came out at 0.28 µM.
For the compound `Cc1ccc(NC(=O)c2cc(Cl)cc(C(F)(F)F)c2)cc1N1CCc2nc(Nc3ccc(N4CCN(C)CC4)cc3)ncc2C1=O` [Compound 120, 3-Chloro-N-(4-methyl-3-{2-[4-(4-methyl-piperazin-1-yl)-phenylamino]-5-oxo-7,8-dihydro-5H-pyrido[4,3-d]pyrimidin-6-yl}-phenyl)-5-trifluoromethyl-benzamide], in test [1], the inhibition at 0.1 µM came to 94% and the inhibition at 1 µM was found to be 95%. For the same compound, the midpoint of the response in test [2], the EC50, lay at 2.5 µM. In test [3], the IC50 came out at 0.036 µM.
On to `Cc1ccc(NC(=O)c2cccc(C(F)(F)F)c2)cc1N1CCc2nc(Nc3ccc(C(=O)NC4CCN(C)CC4)nc3)ncc2C1` [Compound 148, 5-{6-[2-Methyl-5-(3-trifluoromethyl-benzoylamino)-phenyl]-5,6,7,8-tetrahydro-pyrido[4,3-d]pyrimidin-2-ylamino}-pyridine-2-carboxylic acid (1-methyl-piperidin-4-yl)-amide], for which, in test [1], the IC50 stood at 0.0024 µM, the inhibition at 0.1 µM worked out at 99% and the inhibition at 1 µM was 99%. The compound further came in with an EC50 in test [2] of 0.034 µM. For the same compound, in test [4], the IC50 amounted to 0.27 µM.
As for `Cc1ccc(NC(=O)NC2CCCC2)cc1N1CCc2nc(Nc3ccc(OCCN4CCCC4)cc3)ncc2C1` [Compound 153, 1-Cyclopentyl-3-(4-methyl-3-{2-[4-(2-pyrrolidin-1-yl-ethoxy)-phenylamino]-7,8-dihydro-5H-pyrido[4,3-d]pyrimidin-6-yl}-phenyl)-urea], in test [1], the inhibition at 0.1 µM came out at 98% and the inhibition at 1 µM was 99%. The midpoint of the response in test [2], the EC50, lay at 0.61 µM. The compound also displayed an IC50 in test [3] of 0.004 µM.
On to `Cc1ccc(NC(=O)CC(C)C(F)(F)F)cc1N1CCc2nc(Nc3ccc(OCCN4CCN(C)CC4)cc3)ncc2C1` (stereo not drawn) [Compound 160, 4,4,4-Trifluoro-3-methyl-N-[4-methyl-3-(2-{4-[2-(4-methyl-piperazin-1-yl)-ethoxy]-phenylamino}-7,8-dihydro-5H-pyrido[4,3-d]pyrimidin-6-yl)-phenyl]-butyramide], for which the IC50 in test [1] is 0.066 µM; in test [3], 0.015 µM.
`Cc1ccc(NC(=O)CCC(F)(F)F)cc1N1CCc2nc(Nc3ccc(C(=O)N4CCN(C)CC4)cc3)ncc2C1` [Compound 164, 4,4,4-Trifluoro-N-(4-methyl-3-{2-[4-(4-methyl-piperazine-1-carbonyl)-phenylamino]-7,8-dihydro-5H-pyrido[4,3-d]pyrimidin-6-yl}-phenyl)-butyramide]: in test [1], the IC50 was 0.026 µM, the inhibition at 0.1 µM was determined as 70% and the inhibition at 1 µM turned out to be 79%. In test [3], the IC50 was 0.046 µM and the inhibition at 0.1 µM is 68%. Also, the inhibition at 1 µM in test [3] (1 μM) came to 91%.
`Cc1ccc(NC(=O)c2cc(C(F)(F)F)ccn2)cc1N1CCc2nc(Nc3ccc(N4CCN(C)CC4)cc3)ncc2C1=O` [Compound 166, 4-Trifluoromethyl-pyridine-2-carboxylic acid (4-methyl-3-{2-[4-(4-methyl-piperazin-1-yl)-phenylamino]-5-oxo-7,8-dihydro-5H-pyrido[4,3-d]pyrimidin-6-yl}-phenyl)-amide]: the results for the IC50 in test [1] and in test [3] were 0.027 µM and 0.048 µM, respectively. Also, the inhibition at 0.1 µM in test [1] is 60%; in test [3], 74%. Further, the inhibition at 1 µM is 87% in test [1] and 93% in test [3] (1 μM).
`Cc1ccc(NC(=O)c2cc(C(F)(F)F)ccn2)cc1N1CCc2nc(Nc3ccc(C(=O)N4CCN(C)CC4)cc3)ncc2C1` [Compound 167, 4-Trifluoromethyl-pyridine-2-carboxylic acid (4-methyl-3-{2-[4-(4-methyl-piperazine-1-carbonyl)-phenylamino]-7,8-dihydro-5H-pyrido[4,3-d]pyrimidin-6-yl}-phenyl)-amide]: the IC50 in test [1] came to 0.027 µM; in test [3], 0.0053 µM; in test [4] it was 0.283 µM. Also, the inhibition at 0.1 µM in test [1] stood at 97%; in test [3], 95%. In addition, the inhibition at 1 µM stood at 98% in test [1] and 97% in test [3] (1 μM).
On to `Cc1ccc(NC(=O)c2cc(C(F)(F)F)ccn2)cc1N1CCc2nc(Nc3ccc(C(=O)N4CCN(C)CC4)cc3)ncc2C1=O` [Compound 170, 4-Trifluoromethyl-pyridine-2-carboxylic acid (4-methyl-3-{2-[4-(4-methyl-piperazine-1-carbonyl)-phenylamino]-5-oxo-7,8-dihydro-5H-pyrido[4,3-d]pyrimidin-6-yl}-phenyl)-amide], for which the results for the inhibition at 0.1 µM in test [1] and in test [3] were 26% and 64%, respectively. Moreover, the inhibition at 1 µM stood at 58% in test [1] and 93% in test [3] (1 μM). In addition, the IC50 in test [3] turned out to be 0.07 µM.
For `CN1CCN(c2ccc(Nc3ncc4c(n3)CCN(c3cc(NC(=O)c5cc(F)cc(C(F)(F)F)c5)ccc3Cl)C4=O)cc2)CC1` [Compound 172, N-(4-Chloro-3-{2-[4-(4-methyl-piperazin-1-yl)-phenylamino]-5-oxo-7,8-dihydro-5H-pyrido[4,3-d]pyrimidin-6-yl]-phenyl)-3-fluoro-5-trifluoromethyl-benzamide], the results for the inhibition at 0.1 µM in test [1] and in test [3] were 66% and 94%, respectively. Moreover, the inhibition at 1 µM in test [1] came to 72%; in test [3] (1 μM) it was 97%. The EC50 in test [2] was found to be 1.84 µM.
On to `CN1CCN(c2ccc(Nc3ncc4c(n3)CCN(c3cc(NC(=O)c5cccc(C(F)(F)F)c5)ccc3Cl)C4)cc2)CC1` [Compound 174, N-(4-Chloro-3-{2-[4-(4-methyl-piperazin-1-yl)-phenylamino]-7,8-dihydro-5H-pyrido[4,3-d]pyrimidin-6-yl}-phenyl)-3-trifluoromethyl-benzamide], for which the inhibition at 0.1 µM in test [1] was found to be 95%; in test [3] it was 94%. The inhibition at 1 µM in test [1] turned out to be 98%; in test [3] (1 μM) it was 97%. For the same compound, the IC50 in test [4] was 0.161 µM.
In the case of `CNC(=O)c1ccc(Nc2ncc3c(n2)CCN(c2cc(NC(=O)c4cccc(C(F)(F)F)c4)ccc2Cl)C3)cc1` [Compound 176, N-{4-Chloro-3-[2-(4-methylcarbamoyl-phenylamino)-7,8-dihydro-5H-pyrido[4,3-d]pyrimidin-6-yl]-phenyl}- -5-trifluoromethyl-benzamide], in test [1], the IC50 worked out at 0.013 µM, the inhibition at 0.1 µM is 87% and the inhibition at 1 µM worked out at 96%. Also, in test [2], a half-maximal response (EC50) required 0.33 µM. In addition, in test [3], the IC50 came out at 0.015 µM and the inhibition at 0.1 µM is 89%. In test [3] (1 μM), the inhibition at 1 µM was 94%.
On to `CNC(=O)c1ccc(Nc2ncc3c(n2)CCN(c2cc(NC(=O)c4cc(F)cc(C(F)(F)F)c4)ccc2Cl)C3)cc1` [Compound 177, N-{4-Chloro-3-[2-(4-methylcarbamoyl-phenylamino)-7,8-dihydro-5H-pyrido[4,3-d]pyrimidin-6-yl]-phenyl}-3-fluoro-5-trifluoromethyl-benzamide], for which, in test [1], the IC50 amounted to 0.02 µM, the inhibition at 0.1 µM was found to be 86% and the inhibition at 1 µM was 96%. For the same compound, the EC50 in test [2] came to 0.12 µM. In addition, the IC50 in test [4] is 0.29 µM.
In test [2], `Cc1nc(Nc2ncc(C(=O)Nc3c(C)cccc3Cl)s2)cc(N2CCN(CCO)CC2)n1` [Dasatinib, reference compound] displayed an EC50 of 0.044 µM. Also, the “JAK2 % inhibition at 1 μM” value in test [3] (1 μM) is listed as 55%.
